# In ChEMBL document CHEMBL3046063, “Synthesis and antimicrobial activity of 5-chloroindoline-2,3-dione derivatives” (2012):
# What was measured:
# Format in all cases: functional
# [1] = test system: Bacillus spizizenii; test: Antimicrobial activity against Bacillus subtilis subsp. spizizenii ATCC 6633 after 24 hr by broth dilution method; conditions: ATCC 6633, 24 h
# [2] = test system: Staphylococcus epidermidis; test: Antimicrobial activity against Staphylococcus epidermidis ATCC 12228 after 24 hr by broth dilution method; conditions: ATCC 12228, 24 h
# [3] = test system: Micrococcus luteus; test: Antimicrobial activity against Micrococcus luteus ATCC 4698 after 24 hr by broth dilution method; conditions: ATCC 4698, 24 h
# [4] = test system: Staphylococcus aureus; test: Antimicrobial activity against Staphylococcus aureus ATCC 25923 after 24 hr by broth dilution method; conditions: ATCC 25923, 24 h
# [5] = test system: Staphylococcus hominis; test: Antimicrobial activity against Staphylococcus hominis ATCC 27844 after 24 hr by broth dilution method; conditions: ATCC 27844, 24 h
# [6] = test system: Bacillus pumilus; test: Antimicrobial activity against Bacillus pumilus ATCC 14884 after 24 hr by broth dilution method; conditions: ATCC 14884, 24 h
# [7] = test system: Bacillus cereus; test: Antimicrobial activity against Bacillus cereus ATCC 11778 after 24 hr by broth dilution method; conditions: ATCC 11778, 24 h
# [8] = test system: Proteus vulgaris; test: Antimicrobial activity against Proteus vulgaris ATCC 13315 after 24 hr by broth dilution method; conditions: ATCC 13315, 24 h
# [9] = test system: Proteus mirabilis; test: Antimicrobial activity against Proteus mirabilis ATCC 49565 after 24 hr by broth dilution method; conditions: ATCC 49565, 24 h
# [10] = test system: Salmonella typhi; test: Antimicrobial activity against Salmonella enterica subsp. enterica serovar Typhi ATCC 19430 after 24 hr by broth dilution method; conditions: ATCC 19430, 24 h
# [11] = test system: Klebsiella pneumoniae; test: Antimicrobial activity against Klebsiella pneumoniae ATCC 13883 after 24 hr by broth dilution method; conditions: ATCC 13883, 24 h
# [12] = test system: Escherichia coli; test: Antimicrobial activity against Escherichia coli ATCC 25922 after 24 hr by broth dilution method; conditions: ATCC 25922, 24 h
# [13] = test system: Pseudomonas aeruginosa; test: Antimicrobial activity against Pseudomonas aeruginosa ATCC 10145 after 24 hr by broth dilution method; conditions: ATCC 10145, 24 h
# [14] = test system: Aspergillus niger; test: Antimicrobial activity against Aspergillus niger ATCC 9142 after 24 hr by broth dilution method; conditions: ATCC 9142, 24 h
# [15] = test system: Aspergillus awamori; test: Antimicrobial activity against Aspergillus awamori ATCC 22342 after 24 hr by broth dilution method; conditions: ATCC 22342, 24 h
# [16] = test system: Candida albicans; test: Antimicrobial activity against Candida albicans ATCC 10231 after 24 hr by broth dilution method; conditions: ATCC 10231, 24 h
# [17] = test system: Alternaria alternata; test: Antimicrobial activity against Alternaria alternata ATCC 66868 after 24 hr by broth dilution method; conditions: ATCC 66868, 24 h
# [18] = test system: Microsporum canis; test: Antimicrobial activity against Arthroderma otae ATCC 11622 after 24 hr by broth dilution method; conditions: ATCC 11622, 24 h
# [19] = test system: Rhizoctonia solani; test: Antimicrobial activity against Rhizoctonia solani ATCC 76131 after 24 hr by broth dilution method; conditions: ATCC 76131, 24 h
# [20] = test system: Trichophyton longifusum; test: Antimicrobial activity against Trichophyton longifusum ATCC 22397 after 24 hr by broth dilution method; conditions: ATCC 22397, 24 h
# [21] = test system: Fusarium solani; test: Antimicrobial activity against Fusarium solani ATCC 38136 after 24 hr by broth dilution method; conditions: ATCC 38136, 24 h
# [22] = test system: Trichoderma viride; test: Antimicrobial activity against Hypocrea rufa ATCC 52440 after 24 hr by broth dilution method; conditions: ATCC 52440, 24 h
# [23] = test system: Aspergillus flavus; test: Antimicrobial activity against Aspergillus flavus ATCC 15517 after 24 hr by broth dilution method; conditions: ATCC 15517, 24 h
# [24] = test system: Aspergillus fumigatus; test: Antimicrobial activity against Aspergillus fumigatus after 24 hr by broth dilution method
Compound,MIC [1] [µg/mL],MIC [2] [µg/mL],MIC [3] [µg/mL],MIC [4] [µg/mL],MIC [5] [µg/mL],MIC [6] [µg/mL],MIC [7] [µg/mL],MIC [8] [µg/mL],MIC [9] [µg/mL],MIC [10] [µg/mL],MIC [11] [µg/mL],MIC [12] [µg/mL],MIC [13] [µg/mL],MIC [14] [µg/mL],MIC [15] [µg/mL],MIC [16] [µg/mL],MIC [17] [µg/mL],MIC [18] [µg/mL],MIC [19] [µg/mL],MIC [20] [µg/mL],further results
O=C1Nc2ccc(Cl)cc2/C1=N/N1C(=O)C(Cl)C1c1ccccc1Cl (centres undefined),150,150,150,300,300,300,300,150,300,300,300,150,300,150,150,75,150,75,150,150,MIC [21]: 150 µg/mL; MIC [22]: 150 µg/mL; MIC [23]: 150 µg/mL; MIC [24]: 150 µg/mL
COc1ccc(C2SCC(=O)N2/N=C2\C(=O)Nc3ccc(Cl)cc32)cc1 (centres undefined),9.37,9.37,18.8,18.8,18.8,18.8,18.8,37.5,9.37,9.37,9.37,18.8,18.8,4.68,4.68,4.68,9.37,9.37,9.37,4.68,MIC [21]: 4.68 µg/mL; MIC [22]: 4.68 µg/mL; MIC [23]: 9.37 µg/mL; MIC [24]: 4.68 µg/mL
CN(C)c1ccc(C2SCC(=O)N2/N=C2\C(=O)Nc3ccc(Cl)cc32)cc1 (centres undefined),18.8,18.8,18.8,9.37,9.37,9.37,18.8,18.8,9.37,9.37,18.8,18.8,18.8,4.68,9.37,9.37,4.68,9.37,4.68,4.68,MIC [21]: 4.68 µg/mL; MIC [22]: 4.68 µg/mL; MIC [23]: 4.68 µg/mL; MIC [24]: 4.68 µg/mL
O=C1Nc2ccc(Cl)cc2/C1=N/N1C(=O)C(Cl)C1c1ccc(Cl)cc1 (centres undefined),9.37,18.8,18.8,18.8,9.37,9.37,18.8,9.37,18.8,9.37,9.37,18.8,18.8,4.68,4.68,4.68,9.37,9.37,9.37,4.68,MIC [21]: 4.68 µg/mL; MIC [22]: 4.68 µg/mL; MIC [23]: 9.37 µg/mL; MIC [24]: 4.68 µg/mL
O=C1Nc2ccc(Cl)cc2/C1=N/N1C(=O)CSC1c1ccc([N+](=O)[O-])cc1 (centres undefined),37.5,18.8,9.37,9.37,9.37,18.8,18.8,37.5,18.8,18.8,9.37,18.8,9.37,4.68,9.37,9.37,4.68,4.68,9.37,4.68,MIC [21]: 9.37 µg/mL; MIC [22]: 9.37 µg/mL; MIC [23]: 4.68 µg/mL; MIC [24]: 4.68 µg/mL
COc1ccc(C2C(Cl)C(=O)N2/N=C2\C(=O)Nc3ccc(Cl)cc32)cc1 (centres undefined),18.8,9.37,9.37,18.8,18.8,9.37,9.37,18.8,18.8,9.37,9.37,9.37,9.37,4.68,4.68,4.68,9.37,9.37,9.37,4.68,MIC [21]: 4.68 µg/mL; MIC [22]: 4.68 µg/mL; MIC [23]: 9.37 µg/mL; MIC [24]: 4.68 µg/mL
